Laboratory results published in patent publication US20050101595A1, “N-containing cycloalkyl-substituted amino-thiazole derivatives and pharmaceutical compositions for inhibiting cell proliferation and methods for their use” (PFIZER INC., priority 2003, published 2005).
Structures can show the parent of a compound that is named as a salt. Where two headings read alike, the source gives them in different places.

Key:
[1] = tested on: HCT-116 cell line; assay: Inhibition of cell growth, tetrazolium salt (MTT) assay; assay type: cell-based; conditions: for HCT-116 % Inhibition at 0.25 μM: 0.25 μM compound; for IC50: Homo sapiens, HCT-116, 120 h, MTT, three to five days, read-out: HCT-116 IC50
Method in brief: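 HCT-116 cells in McCoy's 5A medium received compound 4 h after plating (0.5% v/v DMSO) and were incubated three to five days at 37° C, 5% CO2. MTT (0.2 mg/mL final) then added for 4 h; DMSO-solubilized formazan read at 540 nm against 0.5% DMSO-treated controls.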

[2] = molecular target: CDK2/Cyclin A (Homo sapiens, UniProt P24941); assay: Inhibition of CDK2/Cyclin A Retinoblastoma Kinase Activity; assay type: biochemical; conditions: for Ki: apparent Ki, CDK2/proteolyzed cyclin A, Rb fragment substrate, 25 μM ATP
Method in brief: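 Radiometric filter-binding readout of phosphate transfer to an Rb substrate fragment by purified CDK2/truncated cyclin A at 10 or 19 nM. Run at pH 7.4 with 25 μM ATP, 30 °C, 60–75 min, linear rates; background without enzyme subtracted, Ki from competitive-inhibition models.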

[3] = molecular target: human CDK4 and genetically truncated (1-264) cyclin D3 (Homo sapiens, UniProt P11802); assay: Inhibition of CDK4/Cyclin D Retinoblastoma Kinase Activity; assay type: biochemical; conditions: for Ki: apparent Ki, CDK4/truncated cyclin D3, Rb fragment substrate, 25 μM ATP
Chain of human CDK4 and genetically truncated (1-264) cyclin D3 (P11802 whole entry, the tested form may be a part): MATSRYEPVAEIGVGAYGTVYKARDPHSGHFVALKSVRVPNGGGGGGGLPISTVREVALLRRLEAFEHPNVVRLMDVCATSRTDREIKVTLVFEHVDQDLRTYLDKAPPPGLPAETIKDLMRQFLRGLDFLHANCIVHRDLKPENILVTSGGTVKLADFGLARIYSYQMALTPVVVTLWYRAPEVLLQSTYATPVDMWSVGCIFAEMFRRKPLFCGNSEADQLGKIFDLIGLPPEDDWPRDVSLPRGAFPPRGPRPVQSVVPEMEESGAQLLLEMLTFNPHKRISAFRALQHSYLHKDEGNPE
Chain of human CDK4 and genetically truncated (1-264) cyclin D3 (P30281 1-264 partner): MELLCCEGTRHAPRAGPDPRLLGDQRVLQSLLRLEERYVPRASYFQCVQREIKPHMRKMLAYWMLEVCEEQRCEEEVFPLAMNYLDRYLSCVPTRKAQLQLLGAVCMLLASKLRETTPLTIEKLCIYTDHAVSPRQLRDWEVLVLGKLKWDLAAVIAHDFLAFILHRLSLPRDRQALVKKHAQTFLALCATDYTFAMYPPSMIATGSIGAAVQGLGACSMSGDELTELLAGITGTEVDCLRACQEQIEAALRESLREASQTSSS
Method in brief: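 Apparent Ki values come from competitive or competitive tight-binding inhibition fits of background-corrected 32P/33P incorporation into His-tagged Rb fragment (386-928), captured on nitrocellulose. Reaction: 5 nM insect-cell-expressed human CDK4 with cyclin D3 (1-264), 25 μM ATP, pH 7.4 HEPES, 2% DMSO, 30° C., 20 min, extended to 60 min for tight-binding inhibitors.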

[4] = 0.1 μM compound, HCT-116, Table 4

Row | Compound | HCT-116 % Inhibition at 0.1 μM [1, 4] [%] | HCT-116 % Inhibition at 0.25 μM ([1]; HCT-116, Table 4) [%] | CDK2 % Inhibition at 0.03 μM ([2]; 0.03 μM compound, Table 4) [%] | CDK4 % Inhibition at 0.03 μM ([3]; 0.03 μM compound, Table 4) [%] | IC50 ([1]; first HCT-116 column (c4)) [nM] | IC50 ([1]; second HCT-116 column (c5)) [nM] | Ki [2] [nM] | Ki [3] [nM] | further results
1 | CCC(C(=O)N1CCC(Nc2nc(N)c(C(=O)c3c(F)cccc3F)s2)CC1)c1ccccc1 (stereo not drawn) [Example R10] | – | – | – | – | – | – | – | – | HCT-116 % Inhibition at 0.1 μM ([1]; HCT-116 cells, at 0.1 μM): 0%; HCT-116 5 Inhibition at 0.25 μM ([1]; HCT-116 cells): 40; CDK2 % Inhibition at 0.03 μM ([2]; at 0.03 μM): 5%; CDK4 % Inhibition at 0.03 μM ([3]; at 0.03 μM): 29%
2 | Nc1nc(NC2CCN(S(=O)(=O)c3ccc(F)cc3)CC2)sc1C(=O)c1c(F)cccc1F [Example P13] | – | – | – | – | – | – | – | – | HCT-116 % Inhibition at 0.1 μM ([1]; 0.1 μM compound, HCT-116, Table 3): 19%; HCT-116 % Inhibition at 0.25 μM ([1]; HCT-116, Table 3): 31%; CDK2 % Inhibition at 0.03 μM ([2]; 0.03 μM compound, Table 3): 75%; CDK4 % Inhibition at 0.03 μM ([3]; 0.03 μM compound, Table 3): 77%
3 | Nc1nc(NC2CCN(C(=O)c3ccc(F)c(F)c3)CC2)sc1C(=O)c1c(F)cccc1F [Example Q73] | 3 | 33 | 52 | 78 | – | – | – | – | –
4 | CN1CCC[C@@H](COc2ccc(S(=O)(=O)N3CCC(Nc4nc(N)c(C(=O)c5c(F)cccc5F)s4)CC3)cn2)C1 (stereo in doubt) [Example H10, 1-(4-Amino-2-{1-[6-(1-methyl-piperidin-3R-ylmethoxy)-pyridine-3-sulfonyl]-piperidin-4-ylamino}-thiazol-5-yl)-1-(2,6-difluoro-phenyl)-methanone] | – | – | – | – | 48 | > 500 | 1.1 | 0.7 | –
5 | CN1CCC[C@H]1COc1ccc(S(=O)(=O)N2CCC(Nc3nc(N)c(C(=O)c4c(F)cccc4F)s3)CC2)cn1 [Example H12, 1-(4-Amino-2-{1-[6-(1-methyl-pyrrolidin-2S-ylmethoxy)-pyridine-3-sulfonyl]-piperidin-4-ylamino}-thiazol-5-yl)-1-(2,6-difluoro-phenyl)-methanone] | – | – | – | – | 58 | 400 | 0.88 | 0.39 | –
6 | CC1(C)CN(c2ccc(S(=O)(=O)N3CCC(Nc4nc(N)c(C(=O)c5c(F)cccc5F)s4)CC3)cc2)CCN1 [Example G31, 1-(4-Amino-2-{1-[4-(3,3-dimethyl-piperazin-1-yl)-benzenesulfonyl]-piperidin-4-ylamino}-thiazol-5-yl)-1-(2,6-difluoro-phenyl)-methanone] | – | – | – | – | 110 | 1500 | 0.82 | 0.53 | –
7 | Nc1nc(NC2CCN(C(=O)c3cnc4ccccc4n3)CC2)sc1C(=O)c1c(F)cccc1F [Example Q67] | 9 | 30 | 13 | 50 | – | – | – | – | –
8 | COc1cc(OC)cc(C(=O)N2CCC(Nc3nc(N)c(C(=O)c4c(F)cccc4F)s3)CC2)c1 [Example R137] | – | – | – | – | – | – | – | – | HCT-116 % Inhibition at 0.1 μM ([1]; HCT-116 cells, at 0.1 μM): 0%; HCT-116 5 Inhibition at 0.25 μM ([1]; HCT-116 cells): 38; CDK2 % Inhibition at 0.03 μM ([2]; at 0.03 μM): 55%; CDK4 % Inhibition at 0.03 μM ([3]; at 0.03 μM): 73%
9 | Nc1nc(NC2CCN(C(=O)Nc3ccc(Oc4ccccc4)cc3)CC2)sc1C(=O)c1c(F)cccc1F [Example O52] | – | – | – | – | – | – | – | – | HCT-116 % Inhibition at 0.25 μM ([1]; HCT-116, Table 2): 33%; CDK2 % Inhibition At 0.03 μM ([2]; 0.03 μM compound, Table 2): 24%; CDK4 % Inhibition at 0.03 μM ([3]; 0.03 μM compound, Table 2): 11%
10 | Nc1nc(NC2CCN(C(=O)Cc3ccccc3)CC2)sc1C(=O)c1c(F)cccc1F [Example Q43] | 0 | 24 | 16 | 30 | – | – | – | – | –
11 | CN(C)CCc1ccc(S(=O)(=O)N2CCC(Nc3nc(N)c(C(=O)c4c(F)cccc4F)s3)CC2)cn1 [Example N11, (4-Amino-2-{1-[6-(2-dimethylamino-ethyl)-pyridine-3-sulfonyl]-piperidin-4-ylamino}-thiazol-5-yl)-(2,6-difluoro-phenyl)-methanone TFA Salt.] | – | – | – | – | 140 | 1600 | 1.6 | 0.39 | –
12 | CN(C)CCSc1ccc(S(=O)(=O)N2CCC(Nc3nc(N)c(C(=O)c4c(F)cccc4F)s3)CC2)cn1 [Example L1, 1-(4-Amino-2-{1-[6-(2-dimethylamino-ethylsulfanyl)-pyridine-3-sulfonyl]-piperidin-4-ylamino}-thiazol-5-yl)-1-(2,6-difluoro-phenyl)-methanone Dihydrochloride.] | – | – | – | – | 78 | > 500 | 0.62 | 0.3 | –
13 | Nc1nc(NC2CCN(C(=O)c3ccc(-c4ccccc4)cc3)CC2)sc1C(=O)c1c(F)cccc1F [Example Q32] | 13 | 54 | −11 | 15 | – | – | – | – | –
